As to `CC(C)c1cc(-c2ccc(F)cc2)c(C=O)c(C(C)C)n1`, the melting point lay in the range of 72 to 75 °C. In the case of `O=[N+]([O-])c1ccc2nc(-c3ccc(Cl)cc3)sc2c1` it was 227 to 232 °C. Regarding `O=[N+]([O-])c1ccc(NCCC23CCCN2CCC3)c2ccccc12`, the melting point was 90 to 91 °C. In the case of `O=C(O)c1cccc(-c2cc([N+](=O)[O-])ccc2F)c1` it was 272 to 274 °C. To `CCCCN(CCCC)Cc1cc(C(C)(C)C)cc(C(C)(C)C)c1O` belongs 33 to 35 °C. In the case of `Cc1ccc(-c2ccc3c(c2)C=C(C(=O)N2CCC(N)CC2)CCO3)cc1` it was 123 to 127 °C.

A word on the melting point: it is the temperature, or range, at which the solid turns liquid.

(Values after a melting point compilation (Tetko et al.; mined from patent text by program, amines drawn as free bases though some values may be those of a salt).)
